Results taken from US20210045385A1, “PYRIDAZINONE-SUBSTITUTED KETOXIMES AS HERBICIDES” (FMC Corporation, priority 2018, published 2021).

Columns and labels:
Type in all cases: in vivo
[1] = tested on: Italian ryegrass (Lolium mutiflorum); assay: Test C preemergence, visual plant response rating; conditions: Test C, 0 is no effect, 100 is complete control
In short: (§1)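 Seeds sown in a loam–sand blend got a directed preemergence soil spray; postemergence plants (2–10 cm, one- to two-leaf stage) were sprayed with compound in a non-phytotoxic solvent plus surfactant. Injury was scored visually against untreated controls after about 10 d in a greenhouse on a 0–100 scale (100 = complete control).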

[2] = tested on: barnyardgrass (Echinochloa crus-galli); assay: Test C preemergence, visual plant response rating; conditions: Test C, 0 is no effect, 100 is complete control
In short: as §1

[3] = tested on: foxtail, giant (giant foxtail, Setaria faberi); assay: Test C preemergence, visual plant response rating; conditions: Test C, 0 is no effect, 100 is complete control
In short: as §1

[4] = tested on: kochia (Bassia scoparia); assay: Test C preemergence, visual plant response rating; conditions: Test C, 0 is no effect, 100 is complete control
In short: as §1

[5] = tested on: pigweed (Amaranthus retroflexus); assay: Test C preemergence, visual plant response rating; conditions: Test C, 0 is no effect, 100 is complete control
In short: as §1

[6] = tested on: ragweed (common ragweed, Ambrosia artemisiifolia); assay: Test C preemergence, visual plant response rating; conditions: Test C, 0 is no effect, 100 is complete control
In short: as §1

[7] = tested on: Italian ryegrass (Lolium mutiflorum); assay: Test C postemergence, visual plant response rating
In short: as §1

[8] = tested on: barnyardgrass (Echinochloa crus-galli); assay: Test C postemergence, visual plant response rating
In short: as §1

[9] = tested on: blackgrass (Alopecurus myosuroides); assay: Test C postemergence, visual plant response rating
In short: as §1

[10] = tested on: corn (Zea mays); assay: Test C postemergence, visual plant response rating
In short: as §1

[11] = tested on: foxtail, giant (giant foxtail, Setaria faberi); assay: Test C postemergence, visual plant response rating
In short: as §1

[12] = tested on: galium (catchweed bedstraw, Galium aparine); assay: Test C postemergence, visual plant response rating
In short: as §1

[13] = tested on: kochia (Bassia scoparia); assay: Test C postemergence, visual plant response rating
In short: as §1

[14] = tested on: pigweed (Amaranthus retroflexus); assay: Test C postemergence, visual plant response rating
In short: as §1

[15] = tested on: ragweed (common ragweed, Ambrosia artemisiifolia); assay: Test C postemergence, visual plant response rating
In short: as §1

[16] = tested on: wheat (Triticum aestivum); assay: Test C postemergence, visual plant response rating
In short: as §1

[17] = tested on: barnyardgrass (Echinochloa crus-galli); assay: Test D flooded paddy test, visual plant response rating; conditions: 250 g ai/ha, scale 0 to 100 (0 no effect, 100 complete control), 13 to 15 d
In short: (§2)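 Greenhouse paddy assay scored on a 0–100 visual scale after 13 to 15 d, where 100 means complete control and a dash marks no result; dosing was into 3 cm floodwater over 2-leaf plants.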

[18] = tested on: duck salad (Heteranthera limosa); assay: as above; conditions: 250 g ai/ha, scale 0 to 100 (0 no effect, 100 complete control), 13 to 15 d
In short: as §2

[19] = tested on: rice (Oryza sativa); assay: as above; conditions: 250 g ai/ha, scale 0 to 100 (0 no effect, 100 complete control), 13 to 15 d
In short: as §2

[20] = tested on: sedge umbrella (small-flower umbrella sedge, Cyperus difformis); assay: as above; conditions: 250 g ai/ha, scale 0 to 100 (0 no effect, 100 complete control), 13 to 15 d
In short: as §2

[21] = Test C, postemergence, 125 g ai/ha

| SMILES | Ryegrass, Italian plant response rating (0 to 100 scale) ([1]; 31 g ai/ha) | Ryegrass, Italian plant response rating (0 to 100 scale) ([1]; 125 g ai/ha) | Barnyardgrass plant response rating (0 to 100 scale) ([2]; 31 g ai/ha) | Barnyardgrass plant response rating (0 to 100 scale) ([2]; 125 g ai/ha) | Foxtail, Giant plant response rating (0 to 100 scale) ([3]; 31 g ai/ha) | Foxtail, Giant plant response rating (0 to 100 scale) ([3]; 125 g ai/ha) | Kochia plant response rating (0 to 100 scale) ([4]; 31 g ai/ha) | Kochia plant response rating (0 to 100 scale) ([4]; 125 g ai/ha) | Pigweed plant response rating (0 to 100 scale) ([5]; 31 g ai/ha) | Pigweed plant response rating (0 to 100 scale) ([5]; 125 g ai/ha) | Ragweed plant response rating (0 to 100 scale) ([6]; 31 g ai/ha) | Ragweed plant response rating (0 to 100 scale) ([6]; 125 g ai/ha) | Ryegrass, Italian plant response rating (0 to 100 scale) ([7]; Postemergence, 31 g ai/ha) | Ryegrass, Italian plant response rating (0 to 100 scale) [7, 21] | Barnyardgrass plant response rating (0 to 100 scale) ([8]; Postemergence, 31 g ai/ha) | Barnyardgrass plant response rating (0 to 100 scale) [8, 21] | Blackgrass plant response rating (0 to 100 scale) ([9]; Postemergence, 31 g ai/ha) | Blackgrass plant response rating (0 to 100 scale) [9, 21] | Corn plant response rating (0 to 100 scale) ([10]; Postemergence, 31 g ai/ha) | Corn plant response rating (0 to 100 scale) [10, 21] | further results |
| --- | --- | --- | --- | --- | --- | --- | --- | --- | --- | --- | --- | --- | --- | --- | --- | --- | --- | --- | --- | --- | --- |
| C#CCO/N=C(/c1ccc(F)c(Cl)c1)c1c(O)c(C)nn(C)c1=O [Compound 229] | 20 | 90 | 0 | 30 | 10 | 30 | 0 | 0 | 10 | 40 | 0 | 0 | 40 | 70 | 0 | 30 | 50 | 0 | 0 | 40 | Foxtail, Giant plant response rating (0 to 100 scale) ([11]; Postemergence, 31 g ai/ha): 10; Foxtail, Giant plant response rating (0 to 100 scale) [11, 21]: 40; Galium plant response rating (0 to 100 scale) ([12]; Postemergence, 31 g ai/ha): 60; Galium plant response rating (0 to 100 scale) [12, 21]: 80; Kochia plant response rating (0 to 100 scale) ([13]; Postemergence, 31 g ai/ha): 0; Kochia plant response rating (0 to 100 scale) [13, 21]: 0; Pigweed plant response rating (0 to 100 scale) ([14]; Postemergence, 31 g ai/ha): 20; Pigweed plant response rating (0 to 100 scale) [14, 21]: 50; Ragweed plant response rating (0 to 100 scale) ([15]; Postemergence, 31 g ai/ha): 10; Ragweed plant response rating (0 to 100 scale) [15, 21]: 20; Wheat plant response rating (0 to 100 scale) ([16]; Postemergence, 31 g ai/ha): 30; Wheat plant response rating (0 to 100 scale) [16, 21]: 60; Plant response rating, Barnyardgrass (Flood) [17]: 0; Plant response rating, Ducksalad (Flood) [18]: 0; Plant response rating, Rice (Flood) [19]: 0; Plant response rating, Sedge, Umbrella (Flood) [20]: 0 |
| C#CCO/N=C(\c1ccc(F)c(Cl)c1)c1c(O)c(C)nn(C)c1=O [Compound 230] | 0 | 10 | 0 | 0 | 0 | 30 | 0 | 0 | 10 | 30 | 0 | 0 | 0 | 40 | 0 | 20 | 0 | 10 | 0 | 0 | Foxtail, Giant plant response rating (0 to 100 scale) ([11]; Postemergence, 31 g ai/ha): 10; Foxtail, Giant plant response rating (0 to 100 scale) [11, 21]: 30; Galium plant response rating (0 to 100 scale) ([12]; Postemergence, 31 g ai/ha): 50; Galium plant response rating (0 to 100 scale) [12, 21]: 70; Kochia plant response rating (0 to 100 scale) ([13]; Postemergence, 31 g ai/ha): 0; Kochia plant response rating (0 to 100 scale) [13, 21]: 0; Pigweed plant response rating (0 to 100 scale) ([14]; Postemergence, 31 g ai/ha): 0; Pigweed plant response rating (0 to 100 scale) [14, 21]: 20; Ragweed plant response rating (0 to 100 scale) ([15]; Postemergence, 31 g ai/ha): 10; Ragweed plant response rating (0 to 100 scale) [15, 21]: 20; Wheat plant response rating (0 to 100 scale) ([16]; Postemergence, 31 g ai/ha): 0; Wheat plant response rating (0 to 100 scale) [16, 21]: 60; Plant response rating, Barnyardgrass (Flood) [17]: 0; Plant response rating, Ducksalad (Flood) [18]: 0; Plant response rating, Rice (Flood) [19]: 0; Plant response rating, Sedge, Umbrella (Flood) [20]: 0 |
| CO/N=C(/c1cccc(Br)c1)c1c(O)c(C)nn(C)c1=O [Compound 234] | 40 | 90 | 0 | 0 | 0 | 20 | 0 | 0 | 0 | 0 | 10 | 40 | 50 | 70 | 10 | 30 | 10 | 0 | 0 | 0 | Foxtail, Giant plant response rating (0 to 100 scale) ([11]; Postemergence, 31 g ai/ha): 10; Foxtail, Giant plant response rating (0 to 100 scale) [11, 21]: 30; Galium plant response rating (0 to 100 scale) ([12]; Postemergence, 31 g ai/ha): 80; Galium plant response rating (0 to 100 scale) [12, 21]: 90; Kochia plant response rating (0 to 100 scale) ([13]; Postemergence, 31 g ai/ha): 30; Kochia plant response rating (0 to 100 scale) [13, 21]: 70; Pigweed plant response rating (0 to 100 scale) ([14]; Postemergence, 31 g ai/ha): 10; Pigweed plant response rating (0 to 100 scale) [14, 21]: 30; Ragweed plant response rating (0 to 100 scale) ([15]; Postemergence, 31 g ai/ha): 40; Ragweed plant response rating (0 to 100 scale) [15, 21]: 80; Wheat plant response rating (0 to 100 scale) ([16]; Postemergence, 31 g ai/ha): 0; Wheat plant response rating (0 to 100 scale) [16, 21]: 0; Plant response rating, Barnyardgrass (Flood) [17]: 0; Plant response rating, Ducksalad (Flood) [18]: 0; Plant response rating, Rice (Flood) [19]: 0; Plant response rating, Sedge, Umbrella (Flood) [20]: 0 |
| CO/N=C(\c1cccc(Br)c1)c1c(O)c(C)nn(C)c1=O [Compound 239] | 10 | 50 | 0 | 0 | 0 | 10 | 0 | 10 | 0 | 10 | 10 | 50 | 50 | 60 | 10 | 30 | 0 | 0 | 0 | 0 | Foxtail, Giant plant response rating (0 to 100 scale) ([11]; Postemergence, 31 g ai/ha): 0; Foxtail, Giant plant response rating (0 to 100 scale) [11, 21]: 20; Galium plant response rating (0 to 100 scale) ([12]; Postemergence, 31 g ai/ha): 70; Galium plant response rating (0 to 100 scale) [12, 21]: 90; Kochia plant response rating (0 to 100 scale) ([13]; Postemergence, 31 g ai/ha): 40; Kochia plant response rating (0 to 100 scale) [13, 21]: 60; Pigweed plant response rating (0 to 100 scale) ([14]; Postemergence, 31 g ai/ha): 20; Pigweed plant response rating (0 to 100 scale) [14, 21]: 60; Ragweed plant response rating (0 to 100 scale) ([15]; Postemergence, 31 g ai/ha): 50; Ragweed plant response rating (0 to 100 scale) [15, 21]: 70; Wheat plant response rating (0 to 100 scale) ([16]; Postemergence, 31 g ai/ha): 0; Wheat plant response rating (0 to 100 scale) [16, 21]: 0; Plant response rating, Barnyardgrass (Flood) [17]: 0; Plant response rating, Ducksalad (Flood) [18]: 0; Plant response rating, Rice (Flood) [19]: 0; Plant response rating, Sedge, Umbrella (Flood) [20]: 0 |
